Source: ChEMBL document CHEMBL6182909 (J Med Chem, 2025)
≈ marks a conversion by molar mass, not a printed value. Each block holds one molecule with its values, some of them ahead of it. Calls of active or inactive are those of the source. The rule behind the calls is not given here.

Assays:
[1] = Half life in dog at 2 mg/kg, iv; assay type: ADME, organism-based, Canis lupus familiaris; conditions: in vivo
[2] = Clearance in rat at 2 mg/kg, iv; assay type: ADME, organism-based; conditions: in vivo
[3] = Clearance in mouse at 2 mg/kg, iv; assay type: ADME, organism-based; conditions: in vivo
[4] = Half life in rat at 2 mg/kg, iv; assay type: ADME, organism-based; conditions: in vivo
[5] = AUC (0 to infinity) in Cynomolgus monkey at 5 mg/kg, po; assay type: ADME, organism-based, Macaca fascicularis; conditions: in vivo
[6] = Tmax in dog at 5 mg/kg, po; assay type: ADME, organism-based, Canis lupus familiaris; conditions: in vivo
[7] = Clearance in Cynomolgus monkey at 2 mg/kg, iv; assay type: ADME, organism-based, Macaca fascicularis; conditions: in vivo
[8] = Oral bioavailability in dog at 5 mg/kg; assay type: ADME, organism-based, Canis lupus familiaris; conditions: in vivo
[9] = test system: Rattus norvegicus; test: Hypophagic effect in fasted male Sprague-Dawley rat assessed as inhibition of food intake at 10 mg/kg, po measured after 1 hr relative to control; assay type: functional; conditions: Rattus norvegicus, Sprague-Dawley, po
[10] = Basicity constant, pKa of compound; assay type: physicochemical
[11] = Renal clearance in dog at 2 mg/kg, iv; assay type: ADME, organism-based, Canis lupus familiaris; conditions: in vivo
[12] = Tmax in rat at 5 mg/kg, po; assay type: ADME, organism-based; conditions: in vivo
[13] = Tmax in mouse at 5 mg/kg, po; assay type: ADME, organism-based; conditions: in vivo
[14] = Renal clearance in Cynomolgus monkey at 2 mg/kg, iv; assay type: ADME, organism-based, Macaca fascicularis; conditions: in vivo
[15] = test system: Rattus norvegicus; test: Hypophagic effect in fasted male Sprague-Dawley rat at 10 mg/kg, po measured after 1 hr in presence of SB242084; assay type: functional, organism-based
[16] = Half life in rat at 5 mg/kg, po; assay type: ADME, organism-based; conditions: in vivo
[17] = Tmax in Cynomolgus monkey at 5 mg/kg, po; assay type: ADME, organism-based, Macaca fascicularis; conditions: in vivo
[18] = Half life in mouse at 2 mg/kg, iv; assay type: ADME, organism-based; conditions: in vivo
[19] = AUC (0 to infinity) in dog at 5 mg/kg, po; assay type: ADME, organism-based, Canis lupus familiaris; conditions: in vivo
[20] = AUC (0 to infinity) in mouse at 5 mg/kg, po; assay type: ADME, organism-based; conditions: in vivo
[21] = Volume of distribution at steady state in Cynomolgus monkey at 2 mg/kg, iv; assay type: ADME, organism-based, Macaca fascicularis; conditions: in vivo, read-out: Vdss
[22] = AUC (0 to infinity) in rat at 2 mg/kg, iv; assay type: ADME, organism-based; conditions: in vivo
[23] = Half life in Cynomolgus monkey at 2 mg/kg, iv; assay type: ADME, organism-based, Macaca fascicularis; conditions: in vivo
[24] = Volume of distribution at steady state in dog at 2 mg/kg, iv; assay type: ADME, organism-based, Canis lupus familiaris; conditions: in vivo, read-out: Vdss
[25] = Half life in Cynomolgus monkey at 5 mg/kg, po; assay type: ADME, organism-based, Macaca fascicularis; conditions: in vivo
[26] = Renal clearance in rat at 2 mg/kg, iv; assay type: ADME, organism-based; conditions: in vivo
[27] = Oral bioavailability in mouse at 5 mg/kg; assay type: ADME, organism-based; conditions: in vivo
[28] = Half life in dog at 5 mg/kg, po; assay type: ADME, organism-based, Canis lupus familiaris; conditions: in vivo
[29] = Unbound fraction in brain of fasted male Sprague-Dawley rat at 10 mg/kg, po; assay type: ADME, organism-based; conditions: in vivo
[30] = Oral bioavailability in Cynomolgus monkey at 5 mg/kg; assay type: ADME, organism-based, Macaca fascicularis; conditions: in vivo
[31] = AUC (0 to infinity) in rat at 5 mg/kg, po; assay type: ADME, organism-based; conditions: in vivo
[32] = Cmax in dog at 5 mg/kg, po; assay type: ADME, organism-based, Canis lupus familiaris; conditions: in vivo
[33] = Cmax in Cynomolgus monkey at 5 mg/kg, po; assay type: ADME, organism-based, Macaca fascicularis; conditions: in vivo
[34] = AUC (0 to infinity) in Cynomolgus monkey at 2 mg/kg, iv; assay type: ADME, organism-based, Macaca fascicularis; conditions: in vivo
[35] = Volume of distribution at steady state in rat at 2 mg/kg, iv; assay type: ADME, organism-based; conditions: in vivo, read-out: Vdss
[36] = Volume of distribution at steady state in mouse at 2 mg/kg, iv; assay type: ADME, organism-based; conditions: in vivo, read-out: Vdss
[37] = AUC (0 to infinity) in mouse at 2 mg/kg, iv; assay type: ADME, organism-based; conditions: in vivo
[38] = Stability in hepatocytes (unknown origin); assay type: ADME, cell-based, Hepatocyte
[39] = Half life in mouse at 5 mg/kg, po; assay type: ADME, organism-based; conditions: in vivo
[40] = Clearance in dog at 2 mg/kg, iv; assay type: ADME, organism-based, Canis lupus familiaris; conditions: in vivo
[41] = Stability in microsomes (unknown origin); assay type: ADME, Microsome
[42] = test system: Rattus norvegicus; test: Hypophagic effect in fasted male Sprague-Dawley rat assessed as effective dose administered orally measured after 1 hr relative to control; assay type: functional; conditions: route po
[43] = Cmax in rat at 5 mg/kg, po; assay type: ADME, organism-based; conditions: in vivo
[44] = Water solubility of compound; assay type: physicochemical; conditions: buffer
[45] = Cmax in mouse at 5 mg/kg, po; assay type: ADME, organism-based; conditions: in vivo
[46] = Unbound fraction in plasma of fasted male Sprague-Dawley rat at 10 mg/kg, po; assay type: ADME, organism-based
[47] = AUC (0 to infinity) in dog at 2 mg/kg, iv; assay type: ADME, organism-based, Canis lupus familiaris; conditions: in vivo
[48] = Drug concentration in plasma of fasted male Sprague-Dawley rat assessed as inhibition of food intake at 10 mg/kg, po measured after 1 hr relative to control; assay type: organism-based
[49] = test system: Rattus norvegicus; test: Hypophagic effect in fasted male Sprague-Dawley rat assessed as inhibition of food intake at 5 mg/kg, po measured after 1 hr relative to control; assay type: functional
[50] = Drug concentration in brain of fasted male Sprague-Dawley rat assessed as inhibition of food intake at 10 mg/kg, po measured after 1 hr relative to control; assay type: organism-based; conditions: read-out: Ct
[51] = Oral bioavailability in rat at 5 mg/kg; assay type: ADME, organism-based; conditions: in vivo

half-life [1]: 1.38 h
clearance [2]: 44.3 mL/min/kg
clearance [3]: 99 mL/min/kg
half-life [4]: 0.56 h
AUC(0-inf) [5]: 3580 ng·h/mL
Tmax [6]: 0.92 h
clearance [7]: 16.7 mL/min/kg
bioavailability [8]: 90.2%
pKa [10]: 7.93
CL renal [11]: 1.17 mL/min/kg
Tmax [12]: 0.58 h
Tmax [13]: 0.25 h
CL ([14]; iv, 2 mg/kg): 4.5 mL/min/kg
half-life [16]: 1.51 h
Tmax [17]: 2.33 h
half-life [18]: 0.41 h
AUC(0-inf) [19]: 4130 ng·h/mL
AUC(0-inf) [20]: 720 ng·h/mL
Vd [21]: 1.8 L/kg
AUC(0-inf) [22]: 770 ng·h/mL
half-life [23]: 1.49 h
Vd [24]: 1.41 L/kg
half-life [25]: 2.07 h
CL renal [26]: 24 mL/min/kg
bioavailability [27]: 85.6%
half-life [28]: 1.9 h
Fu [29]: 75%
bioavailability [30]: 71.2%
AUC(0-inf) [31]: 2020 ng·h/mL
Cmax [32]: 1820 ng/mL
Cmax [33]: 700 ng/mL
AUC(0-inf) [34]: 2000 ng·h/mL
Vd [35]: 1.89 L/kg
Vd [36]: 2.44 L/kg
AUC(0-inf) [37]: 340 ng·h/mL
Stability [38]: Stable
half-life [39]: 0.6 h
clearance [40]: 18.3 mL/min/kg
Stability [41]: Stable
Cmax [43]: 570 ng/mL
solubility [44]: 91 mg/mL (≈ 393 mM)
Cmax [45]: 940 ng/mL
fraction unbound [46]: 0.87
AUC(0-inf) [47]: 1830 ng·h/mL
Compound: CNC(=O)c1ccc2c3c1CCN3CCNC2
inhibition in vivo at 10 mg/kg [9]: 87%
Activity [15]: inactive
ED50 [42]: 6.4 mg/kg

half-life [1]: 1.3 h
clearance [2]: 58.5 mL/min/kg
concentration at 1 h [48]: 960 ng/mL
clearance [3]: 68.8 mL/min/kg
half-life [4]: 1.6 h
AUC(0-inf) [5]: 4300 ng·h/mL
Tmax [6]: 0.58 h
clearance [7]: 11.5 mL/min/kg
bioavailability [8]: 97%
CL renal [11]: 0.00333 mL/min/kg
Tmax [12]: 0.5 h
Tmax [13]: 0.25 h
CL renal [14]: 0.0333 mL/min/kg
half-life [16]: 2.5 h
Tmax [17]: 3 h
half-life [18]: 0.66 h
AUC(0-inf) [19]: 3920 ng·h/mL
concentration at 1 h [50]: 832 ng/g
AUC(0-inf) [20]: 910 ng·h/mL
Vd [21]: 4.36 L/kg
AUC(0-inf) [22]: 577 ng·h/mL
half-life [23]: 6.8 h
Vd [24]: 1.85 L/kg
half-life [25]: 5.52 h
CL renal [26]: 9.65 mL/min/kg
bioavailability [27]: 100%
half-life [28]: 4 h
bioavailability [30]: 58%
AUC(0-inf) [31]: 1280 ng·h/mL
Cmax [32]: 1590 ng/mL
Cmax [33]: 430 ng/mL
AUC(0-inf) [34]: 2970 ng·h/mL
Vd [35]: 3.69 L/kg
Vd [36]: 2.98 L/kg
AUC(0-inf) [37]: 318 ng·h/mL
half-life [39]: 1.5 h
bioavailability [51]: 89%
clearance [40]: 20.7 mL/min/kg
Cmax [43]: 450 ng/mL
Cmax [45]: 820 ng/mL
AUC(0-inf) [47]: 1620 ng·h/mL
Compound: C[C@H]1CN2CCNCc3ccc(C(=O)NCC(F)F)c1c32 [BEXICASERIN]
inhibition in vivo at 5 mg/kg [49]: 81%
ED50 [42]: 2.8 mg/kg
